Data published in patent publication US20100183592A1, “HUMAN EPO RECEPTOR AGONISTS, COMPOSITIONS, METHODS AND USES FOR PREVENTING OR TREATING GLUCOSE INTOLERANCE RELATED CONDITIONS” (priority 2006, published 2010).
Where no end group is shown, it is not given here.

Columns and labels:
[1] = in vivo; cited from earlier work
EPO receptor = biological target: T1, EPO receptor (Homo sapiens, UniProt P19235); assay: competition with 125I-labeled EPO for binding to the EPO receptor
T1 sequence (P19235 25-508): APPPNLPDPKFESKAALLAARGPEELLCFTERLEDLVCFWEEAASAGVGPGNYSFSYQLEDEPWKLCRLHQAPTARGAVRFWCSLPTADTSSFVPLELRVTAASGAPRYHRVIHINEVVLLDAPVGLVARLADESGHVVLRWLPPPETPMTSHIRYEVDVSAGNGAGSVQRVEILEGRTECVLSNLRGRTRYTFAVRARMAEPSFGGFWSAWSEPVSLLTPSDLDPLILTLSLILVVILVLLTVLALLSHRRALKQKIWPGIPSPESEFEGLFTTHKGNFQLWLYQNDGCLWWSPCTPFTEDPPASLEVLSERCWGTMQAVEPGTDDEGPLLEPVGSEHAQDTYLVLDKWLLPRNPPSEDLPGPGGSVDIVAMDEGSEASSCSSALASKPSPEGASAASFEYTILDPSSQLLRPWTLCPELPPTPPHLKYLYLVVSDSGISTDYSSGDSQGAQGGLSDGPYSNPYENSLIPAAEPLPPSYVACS

[2] = 50% serum; cited from earlier work
[3] = system: EPO dependent UT-7/EPO cell line; assay: in vitro bioactivity assay: viability of rHuEPO-starved UT-7/EPO cells (MTS); type: cell-based, human; conditions: for activity compared with rHuEPO: in vitro cell proliferation assay
Method: The activity of EMP-Hinge core mimetibody was first tested in an in vitro bioactivity assay. For this assay, the EPO dependent UT-7/EPO cell line, derived from a patient with acute megakaryoblastic leukemia, was used (Komatsu et al., 1993, Blood, vol. 82 (2), 456-464). These cells undergo programmed cell death 48 to 72 hours after withdraw from media supplemented with rHuEPO. Cells that have been incubated in the absence of rHuEPO for 24 hours can be saved if treated with rHuEPO or an EPOR agonist. EMP-Hinge core mimetibody was added to cells starved without rHuEPO and cell viability was determined 48 hours after treatment using the tetrazolium compound MTS (CellTiter 96 Aqueous One Solution, Promega) that is metabolized by living cells to yield a product with an absorbance that can be measured. […] In addition, these same cells were stimulated with EMP-Hinge core mimetibody and tyrosine phosphorylation patterns visualized by running cell lysate through a polyacrylamide gel.

normal mice = assay: effects on erythropoiesis (hematocrit) in normal mice; type: in vivo; conditions: dosed equally / equal activity units
Source text: (§1) In vivo studies were done in normal mice to compare the half-life of EMP-Hinge core mimetibody to that of rHuEPO and to compare their effects on erythropoiesis.

[4] = serum concentrations by ELISA, half-life in normal mice; type: in vivo
Method: as §1
The serum concentrations of both rHuEPO and EMP-Hinge core mimetibody were measured by ELISA.

[5] = system: cells that express the EPO receptor; assay: complement lysis of cells that express the EPO receptor; type: cell-based; conditions: preliminary studies
Source text: It has been shown that mutation of two […] (L) residues, L234 & L235, in the IgG1 lower hinge region to alanine (A) will abrogate the ability of the immunoglobulin to mediate complement dependent cytotoxicity (CDC) and antibody dependant cellular cytotoxicity (ADCC) (Hezereh et al., 2001, J. Virol., vol. 75 (24), 12161-68). […] This may be due to the low number of receptors that are found on erythroid progenitor cells. In addition the in vivo expansion of erythroid progenitors as evidenced by significant increases in hematocrit supports the possible functional irrelevance of immune effector functions. However, while no effector function associated affects have been observed, there remains an interest in introducing these mutations as a precautionary step.

DIO mice [6] = assay: IPGTT in DIO (diet induced obese) mice; type: in vivo; conditions: 5 days after dosing
Method: (§2) The experiment described in Example 1 was repeated in DIO (diet induced obese) mice following dosing of CNTO 530 (0.3 mg/kg). This murine model is believed to be more representative of the human disease since the mice become diabetic after being fed a high fat diet (Purina TestDiet #58126 consisting of 60.9% kcal fat and 20.8% kcal carbohydrates). As described in Example 1, an IPGTT was done on the day of dosing and seven days after dosing. The time points during the IPGTT were 15, 30, 60, 90, 120, 150, and 180 minutes after glucose challenge. After the IPGTT was completed on day 7, the mice were sacrificed and whole blood (in EDTA) was collected via cardiac puncture for hematology studies.
(§3) Mice (DIO; n=7) were fasted overnight and fasting blood glucose (FBG) was measured. The animals were randomized based upon FBG. The mice were dosed intravenously with CNTO 530 (0.3 mg/kg) and given glucose intraperitonealy (0.5 mg/g) ten minutes later. Blood glucose was measured at various times (10, 20, 30, 60, 90, 120, 150, 180 minutes after glucose). The IPGTTs were repeated 7, 14, 21, 28, and 35 days after that initial single dose. […]
(§4) Mice (DIO; n=7) were fasted overnight and fasting blood glucose (FBG) was measured. […]
as §4

DIO mice [7] = assay: hematology (hemoglobin, reticulocytes) in DIO mice; type: in vivo; conditions: DIO mice, 0.03, 0.1, 0.3 mg/kg i.v., five days after dosing
Method: as §2, §3, §4, §4

[8] = system: patients with baseline HbA1C 6.0 or higher; assay: datamining of clinical data (GE Clinical Data Services EMR database), patients prescribed EPO; type: in vivo, human; conditions: for magnitude of HbA1C decline: first 3 months after EPO; for fasting blood glucose after EPO: end of time course
Source text: GE Healthcare's Clinical Data Services database contains de-identified, normalized, longitudinal, patient-level Electronic Medical Record data from nearly to 4,000 US based physicians practicing in ambulatory setting who use GE Centricity EMR system. This database contains data on >4.7M patient lives. Average follow up time is approximately 3 years. The database contains information on Patient demographics, medical history, visit type, clinical observations (including Diagnosis codes), laboratory test results and medications prescribed. JNJ has purchased a license to this dataset and mined it to look for outcomes on diabetic parameters in patients who were prescribed EPO for anemia.
Population was further filtered to identify patients with Pre-EPO measurements followed by post-EPO measurements on the following variables of interest • Blood glucose, fasting • Hemoglobin A1c as % of total hemoglobin • Hemoglobin, blood • Hematocrit, blood
Patients with at least 1 pre- (up to 60 days prior) and 1 post- (up to 6 months after) EPO treatment measurements were considered for analysis. Number of patients meeting this criterion varied in numbers for different variables and time zones. Patients who were on EPO medication and also had mean HbA1c value of 6.0 or higher were considered as diabetic.

[9] = system: patients with end-stage renal disease; conditions: cited from earlier work
[10] = cited from earlier work
DIO mice [11] = assay: fasting blood glucose in DIO mice; type: in vivo; conditions: DIO mice, 0.03, 0.1, 0.3 mg/kg i.v., 5 days after dosing
Method: Mice (DIO; n=7) were fasted overnight and fasting blood glucose (FBG) was measured. The animals were randomized based upon FBG and dosed intravenously with EPO (0.03, 0.1, 0.3 mg/kg). An IPGTT (as described above) was done 5 days after dosing. The animals were sacrificed after the IPGTT and whole blood was collected for hematology measurements.
Mice (DIO; n=7) were fasted overnight and fasting blood glucose (FBG) was measured. The animals were randomized based upon FBG and dosed intravenously with darbepoetin (0.01, 0.03, 0.1 mg/kg). An IPGTT (as described above) was done 7 days after dosing. The animals were sacrificed after the IPGTT and whole blood was collected for hematology measurements.

[12] = UT-7/EPO cells, viability 48 hours after treatment
[13] = listed as EMP-hinge core mimetibody
[14] = baseline HbA1C 7%-8% (7.38%), first month
[15] = baseline HbA1C 8%-9% (8.35%), first month
[16] = baseline HbA1C >9% (10.18), first month
[17] = longitudinal patients, baseline under 126 mg/dL (102 mg/dL)

CERA: Roche's pegylated epoetin
half-life compared with epoetin / EPO [1]: longer half life

EMP-1: 20 amino acid peptide with no sequence homology to HuEPO that activates the EPO receptor as a dimer (GGTYSCHFGPLTWVCKPQGG)
competition with 125I-labeled EPO for binding to the EPO receptor (EPO receptor): competes | ex-vivo half-life [2]: 8 h

EMP-Hinge core mimetibody: V-EMP-1-linker-hinge core-CH2-CH3 construct of IgG1 or IgG4 subclass, SEQ ID NOS: 82-89 (QIQGGTYSCHFGPLTWVCKPQGG; cysteine pairing not given here; also: fused via linker to hinge core-CH2-CH3 of IgG1 or IgG4)
potency on a molar basis, fold greater than the EMP-1 peptide [3, 12]: 500 fold | potency on a molar basis, fold less than rHuEPO [3, 12]: 5 fold | potency on a molar basis, fold greater than the EMP-1 peptide ([3]; UT-7/EPO cells, viability 48 hours after treatment, listed as EMP-hinge core mimetibody): more than 500 fold | activity compared with rHuEPO [3]: in the range of rHuEPO | activity compared with rHuEPO [3, 13]: substantially similar to recombinant HuEPO | duration of response compared to rHuEPO (normal mice): prolonged | maximal response (hematocrit) compared to rHuEPO (normal mice): higher maximal response | duration of response compared to rHuEPO (normal mice; [13]): maintained for a longer period | maximal response (hematocrit) compared to rHuEPO (normal mice; [13]): significantly higher maximal hematocrit | approximate half-life relative to rHuEPO [4]: at least several times that of rHuEPO | complement lysis [5]: does not mediate complement lysis

EPO: glycoprotein hormone of 165 amino acids and four carbohydrate chains, primary regulator of erythropoiesis
glucose tolerance (IPGTT) (DIO mice [6]; 0.03 mg/kg i.v.): modest improvement | glucose tolerance (IPGTT) (DIO mice [6]; 0.3 mg/kg i.v.): modest improvement | hemoglobin (DIO mice [7]): not significantly elevated | reticulocytes (DIO mice [7]): significantly increased in a dose dependent manner | decline in HbA1C level ([8]; baseline HbA1C 6.0%-7.0%): no decline | HbA1C level after EPO [8, 14]: 6.99% | decline in HbA1C level [8, 14]: 0.39% | HbA1C level after EPO [8, 15]: 7.51% | decline in HbA1C level [8, 15]: 0.84% | HbA1C level after EPO [8, 16]: 8.49% | decline in HbA1C level [8, 16]: approximately 1.69% | HbA1C level after EPO ([8]; longitudinal dataset, baseline HbA1C 7-8% (7.47%), first 3 months): 7.01% | magnitude of HbA1C decline ([8]; longitudinal dataset, baseline HbA1C 7-8% (7.47%)): 0.46% | further HbA1C change ([8]; longitudinal dataset, baseline HbA1C 7-8%, next 3 months): no significant further change | HbA1C level after EPO ([8]; longitudinal dataset, baseline HbA1C >8 (9.41%), first 3 months): 8.46% | magnitude of HbA1C decline ([8]; longitudinal dataset, baseline HbA1C >8 (9.41%)): 0.95% | further HbA1C change ([8]; longitudinal dataset, baseline HbA1C >8, next 3 month period): no further decline | fasting blood glucose after EPO ([8]; longitudinal patients, baseline FBG>126 mg/dL (173 mg/dL)): 145 mg/dL | decline in fasting blood glucose, average ([8]; longitudinal patients, baseline FBG>126 mg/dL (173 mg/dL), entire time course): 28 mg/dL | decline in FBG level ([8]; longitudinal patients, baseline under 126 mg/dL): do not show any decline | increase in FBG at the end of the time course [8, 17]: 5 mg/dL | fasting blood glucose after EPO [8, 17]: 107 mg/dL | HbA1C level drop, average ([8]; patients with baseline HbA1C above 6.0, first month after EPO administration): 0.5% | decrease in fasting blood glucose concentration ([8]; patients with baseline HbA1C above 6.0, maximum decline over a 4 month period): approximately 30 mg.dL | improvement in hemoglobin ([8]; patients, clinical data): < 1% | Hemoglobin level ([8]; patients, over a 3 month period after initial EPO administration, then plateau): increases steadily | blood triglyceride, total cholesterol and LDL levels [9]: concomitant improvement | insulin resistance [9]: improve insulin resistance | time to peak serum levels ([10]; subcutaneous administration): 5 to 24 h | time detectable plasma levels are maintained ([10]; within the therapeutic dose range): at least 24 hours | fasting blood glucose (DIO mice [11]): no statistically significant reduction
